Data published in patent US10065990B2, “Cyclic peptide compound, and preparation method, pharmaceutical composition and use thereof” (HANGZHOU GUANYU BIO-MEDICAL CO., LTD, priority 2013, dated 2018).
pIC50: −log10 of the molar value. Like-named read-outs stand apart in the source and are kept apart here. Each block holds one compound with its values, some of them ahead of it.

Key:
HDAC1 = HDAC1 (Homo sapiens, UniProt Q13547); assay: HDAC biochemical activity measurement (fluorescent substrate deacetylation);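 also: fluorogenic acetyl-lysine substrate (20 µM) deacetylated by HDAC1, then developer releases fluorophore read at 360 nm excitation and 460 nm emission, inhibitor incubated 30 min at 37 °C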
HDAC1, sequence (Q13547 whole entry, species assumed): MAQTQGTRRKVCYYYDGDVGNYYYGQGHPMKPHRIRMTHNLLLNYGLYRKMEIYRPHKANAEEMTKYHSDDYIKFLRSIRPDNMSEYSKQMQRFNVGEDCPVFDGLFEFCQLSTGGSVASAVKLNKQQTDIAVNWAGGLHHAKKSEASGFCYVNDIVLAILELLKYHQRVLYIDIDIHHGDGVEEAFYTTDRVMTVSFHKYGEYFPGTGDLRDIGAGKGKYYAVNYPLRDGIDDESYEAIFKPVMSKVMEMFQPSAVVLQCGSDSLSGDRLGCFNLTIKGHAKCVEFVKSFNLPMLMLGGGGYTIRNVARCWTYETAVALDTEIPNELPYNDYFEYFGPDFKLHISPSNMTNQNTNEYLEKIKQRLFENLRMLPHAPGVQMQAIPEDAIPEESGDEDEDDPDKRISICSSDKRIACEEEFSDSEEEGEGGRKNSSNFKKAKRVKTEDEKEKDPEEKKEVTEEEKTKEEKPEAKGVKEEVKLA

HDAC2 = HDAC2 (Homo sapiens, UniProt Q92769); assay: as above; details: 37° C. 30 minutes;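 also: HDAC2 enzyme with an acetyl-lysine fluorescent substrate, then developer added, fluorescence read at excitation 360 nm and emission 460 nm, inhibition measured across several compound concentrations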
HDAC2, sequence (Q92769 whole entry, species assumed): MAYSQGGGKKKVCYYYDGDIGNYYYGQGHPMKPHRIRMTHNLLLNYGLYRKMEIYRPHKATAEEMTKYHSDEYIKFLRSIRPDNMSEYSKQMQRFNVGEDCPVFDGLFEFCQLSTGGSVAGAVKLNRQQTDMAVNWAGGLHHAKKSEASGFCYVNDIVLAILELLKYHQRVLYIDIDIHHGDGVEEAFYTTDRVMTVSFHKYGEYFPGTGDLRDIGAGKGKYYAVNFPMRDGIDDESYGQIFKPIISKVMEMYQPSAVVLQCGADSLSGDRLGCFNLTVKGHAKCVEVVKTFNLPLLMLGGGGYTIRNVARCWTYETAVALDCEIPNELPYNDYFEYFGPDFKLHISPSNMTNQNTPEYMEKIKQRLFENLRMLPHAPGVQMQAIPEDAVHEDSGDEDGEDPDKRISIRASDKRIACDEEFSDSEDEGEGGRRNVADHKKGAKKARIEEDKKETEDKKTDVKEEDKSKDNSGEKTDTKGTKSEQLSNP

HDAC8 = biological target: T1, HDAC8 (Homo sapiens, UniProt Q9BY41); assay: as above; details: 37° C. 30 minutes
T1 sequence (Q9BY41 1-377): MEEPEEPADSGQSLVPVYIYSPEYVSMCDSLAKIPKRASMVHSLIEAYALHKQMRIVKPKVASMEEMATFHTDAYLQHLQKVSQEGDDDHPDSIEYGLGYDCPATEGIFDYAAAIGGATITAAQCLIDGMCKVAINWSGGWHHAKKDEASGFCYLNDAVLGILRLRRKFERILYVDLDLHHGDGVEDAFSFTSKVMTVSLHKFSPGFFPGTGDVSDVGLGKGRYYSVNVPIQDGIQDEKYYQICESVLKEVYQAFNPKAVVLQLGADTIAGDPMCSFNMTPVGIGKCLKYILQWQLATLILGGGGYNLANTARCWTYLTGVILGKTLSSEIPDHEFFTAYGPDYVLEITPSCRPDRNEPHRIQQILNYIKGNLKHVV

HDAC7 = biological target: T2, HDAC7 (Homo sapiens, UniProt Q8WUI4); assay: as above; details: HDAC7; 37° C. 30 minutes;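 also: fluorogenic deacetylation assay using acetyl-lysine substrate at 20 µM, enzyme and compound incubated 30 min at 37 °C, then developer added, fluorescence read at 360/460 nm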
T2 sequence (Q8WUI4 1-952): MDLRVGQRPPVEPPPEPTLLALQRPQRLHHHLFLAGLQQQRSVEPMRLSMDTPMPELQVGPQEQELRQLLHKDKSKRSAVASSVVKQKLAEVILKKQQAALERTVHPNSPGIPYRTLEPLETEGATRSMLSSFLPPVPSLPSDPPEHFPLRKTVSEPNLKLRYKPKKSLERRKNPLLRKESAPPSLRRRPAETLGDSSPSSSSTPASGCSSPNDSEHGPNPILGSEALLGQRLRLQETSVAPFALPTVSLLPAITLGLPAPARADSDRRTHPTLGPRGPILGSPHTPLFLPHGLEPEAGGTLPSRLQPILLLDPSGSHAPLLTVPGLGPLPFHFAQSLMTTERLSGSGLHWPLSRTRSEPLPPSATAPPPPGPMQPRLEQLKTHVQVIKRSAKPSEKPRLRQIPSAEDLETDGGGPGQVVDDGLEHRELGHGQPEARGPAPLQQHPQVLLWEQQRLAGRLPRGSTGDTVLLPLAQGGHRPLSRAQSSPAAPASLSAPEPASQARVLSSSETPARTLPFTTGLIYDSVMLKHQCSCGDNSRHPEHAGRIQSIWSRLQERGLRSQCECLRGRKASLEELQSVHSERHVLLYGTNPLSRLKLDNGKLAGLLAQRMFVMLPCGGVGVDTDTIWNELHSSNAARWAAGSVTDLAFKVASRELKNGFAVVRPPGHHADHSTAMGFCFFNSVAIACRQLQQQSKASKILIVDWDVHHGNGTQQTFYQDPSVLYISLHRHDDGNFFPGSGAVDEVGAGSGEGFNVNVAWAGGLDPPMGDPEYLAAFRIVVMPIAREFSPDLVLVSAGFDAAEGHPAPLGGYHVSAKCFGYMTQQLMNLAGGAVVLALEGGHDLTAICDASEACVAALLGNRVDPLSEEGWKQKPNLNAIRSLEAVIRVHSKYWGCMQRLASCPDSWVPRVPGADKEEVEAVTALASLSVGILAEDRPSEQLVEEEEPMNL

[1] = system: A549 (human lung cancer cells); assay: MTT cancer cell growth inhibition; assay type: cell-based; details: Homo sapiens, A549, 72 h, MTT
Procedure, shortened: (§1)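 Using a 72 h MTT format, triplicate wells of 1500 cells received compound concentrations from 10^−5 to 10^−10 M. Formazan was read at 570 nm after DMSO dissolution, and GI50 was derived from viability.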

[2] = system: H1975 (non-small cell lung adenocarcinoma); assay: MTT cancer cell growth inhibition; assay type: cell-based; details: Homo sapiens, NCI-H1975, 72 h, MTT, 72 hours incubation, H1975 cells; read-out: GI50 H1975
Procedure, shortened: as §1

[3] = system: KBM5-T315I (human chronic myelogenous leukemia); assay: MTT cancer cell growth inhibition; assay type: cell-based; details: Homo sapiens, 72 h, MTT, 72 hours incubation, KBM5-T315I cells; read-out: GI50 KBM5-T315I
Procedure, shortened: as §1

[4] = system: MCF-7 (human breast cancer cells); assay: MTT cancer cell growth inhibition; assay type: cell-based; details: Homo sapiens, MCF7, 72 h
Procedure, shortened: as §1

[5] = system: MOLT-4 (human acute lymphoblastic leukemia cells); assay: MTT cancer cell growth inhibition; assay type: cell-based; details: Homo sapiens, MOLT-4, 72 h, MTT
Procedure, shortened: as §1

HDAC3 = HDAC3 (Homo sapiens, UniProt O15379); assay: HDAC biochemical activity measurement (fluorescent substrate deacetylation);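 also: fluorogenic acetyl-lysine substrate (20 µM) deacetylated by HDAC3, then developer added for 15 min at room temperature, release of fluorophore read at excitation 360 nm, emission 460 nm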
HDAC3, sequence (O15379 whole entry, species assumed): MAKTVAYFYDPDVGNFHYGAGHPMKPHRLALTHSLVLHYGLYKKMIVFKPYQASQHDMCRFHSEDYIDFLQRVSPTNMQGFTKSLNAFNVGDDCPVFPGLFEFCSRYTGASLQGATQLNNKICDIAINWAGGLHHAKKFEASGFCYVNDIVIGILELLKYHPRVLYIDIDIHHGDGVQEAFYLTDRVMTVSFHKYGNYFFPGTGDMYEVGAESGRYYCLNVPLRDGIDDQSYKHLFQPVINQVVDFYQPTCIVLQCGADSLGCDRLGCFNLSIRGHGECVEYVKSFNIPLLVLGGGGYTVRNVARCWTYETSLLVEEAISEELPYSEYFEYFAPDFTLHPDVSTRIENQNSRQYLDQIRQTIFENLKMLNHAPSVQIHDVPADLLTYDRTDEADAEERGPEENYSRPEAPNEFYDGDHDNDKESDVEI
HDAC3, sequence (Q9Y618 395-489 partner limits assumed, species assumed): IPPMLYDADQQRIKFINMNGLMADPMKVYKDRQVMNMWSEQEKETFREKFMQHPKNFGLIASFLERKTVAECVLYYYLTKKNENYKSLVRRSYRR

HDAC11 = biological target: T3, HDAC11 (Homo sapiens, UniProt Q96DB2); assay: as above;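 also: HDAC11 enzyme acting on an acetyl-lysine fluorogenic substrate, then a developer frees the fluorophore, read at excitation 360 nm and emission 460 nm, IC50 over a compound dilution series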
T3 sequence (Q96DB2 1-347): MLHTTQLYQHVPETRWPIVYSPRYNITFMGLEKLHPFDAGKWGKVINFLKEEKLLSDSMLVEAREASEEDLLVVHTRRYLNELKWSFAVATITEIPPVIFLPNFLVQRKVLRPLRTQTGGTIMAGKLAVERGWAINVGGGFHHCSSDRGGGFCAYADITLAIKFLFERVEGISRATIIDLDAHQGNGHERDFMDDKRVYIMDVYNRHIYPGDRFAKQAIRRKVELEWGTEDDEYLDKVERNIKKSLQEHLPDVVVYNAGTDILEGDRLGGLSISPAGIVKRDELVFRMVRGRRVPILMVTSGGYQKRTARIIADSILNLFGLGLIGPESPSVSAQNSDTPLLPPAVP

[6] = HDAC1, 37° C. 30 minutes, read-out: IC50 HDAC1
[7] = Table 3, read-out: IC50 HDAC1, D (non-substituent)
[8] = 72 hours incubation, read-out: GI50 A54
[9] = 72 hours incubation, read-out: GI50 MCF
[10] = 72 hours incubation, read-out: GI50 Mol
[11] = read-out: IC50 HDAC3, HDAC3, 37° C. 30 minutes
[12] = read-out: IC50 HDAC11, HDAC11, 37° C. 30 minutes
[13] = Table 2, read-out: IC50 HDAC1, a (compounds of the present invention)
[14] = 72 hours, present invention, read-out: GI50 A549, a
[15] = 72 hours, present invention, read-out: GI50 MCF7, a
[16] = 72 hours, present invention, read-out: GI50 Molt-4, a
[17] = A549 cells, 72 hours incubation, read-out: GI50 A54
[18] = MCF-7 cells, 72 hours incubation, read-out: GI50 MCF

SMILES: C=C1NC(=O)c2cccc(n2)CNC(=O)C[C@@H](/C=C/CCSC(C)=O)OC(=O)[C@H](C(C)C)NC1=O [Compound 19]
pIC50 (HDAC1; [6]): 6.75
pIC50 (HDAC1; [7]): 6.75
pIC50 (HDAC2): 7.20
pIC50 (HDAC8): 7.16
IC50 HDAC7 (HDAC7): no activity
GI50 [1, 8]: 90 nM
GI50 [2]: 24 nM
GI50 [3]: 24 nM
GI50 [4, 9]: 80 nM
GI50 [5, 10]: 1900 nM
pIC50 (HDAC3; [11]): 7.41
pIC50 (HDAC11; [12]): 6.99

SMILES: C/C=C1\NC(=O)c2cccc(n2)CNC(=O)C[C@@H](/C=C/CCSC(=O)CCCCCCC)OC(=O)[C@H](C)NC1=O [Compound 11]
pIC50 (HDAC1; [6]): 7.54
pIC50 (HDAC1; [13]): > 7.52
pIC50 (HDAC1; [7]): 7.54
pIC50 (HDAC2): 7.26
pIC50 (HDAC8): 7.15
IC50 HDAC7 (HDAC7): no activity
GI50 [1, 8]: 430 nM
GI50 [1, 14]: 430 nM
GI50 [2]: 42 nM
GI50 [3]: 26 nM
GI50 [4, 9]: 50 nM
GI50 [4, 15]: 50 nM
GI50 [5, 10]: 10 nM
GI50 [5, 16]: 17 nM
pIC50 (HDAC3; [11]): 7.35
pIC50 (HDAC11; [12]): 7.09

SMILES: C/C=C1\NC(=O)c2cc(F)cc(n2)CCNC(=O)C[C@@H](/C=C/CCSC(C)=O)OC(=O)[C@H](C(C)C)NC1=O [Compound 104]
pIC50 (HDAC1; [6]): 7.29
pIC50 (HDAC2): 7.59
pIC50 (HDAC8): 7.72
IC50 HDAC7 (HDAC7): no activity
GI50 [1, 8]: 50 nM
GI50 [2]: 38 nM
GI50 [3]: 68 nM
GI50 [4, 9]: 20 nM
GI50 [5, 10]: 30 nM
pIC50 (HDAC3): 7.37
pIC50 (HDAC11): 7.08

Further compounds by rising pIC50 (HDAC1; [6]), results first:

pIC50 (HDAC1; [6]): 7.04
pIC50 (HDAC1; [13]): > 7.00
pIC50 (HDAC2): 7.28
pIC50 (HDAC8): 7.05
IC50 HDAC7 (HDAC7): no activity
GI50 [1, 17]: 120 nM
GI50 [1, 14]: 120 nM
GI50 [2]: 73 nM
GI50 [3]: 12 nM
GI50 [4, 15]: 330 nM
GI50 [4, 18]: 330 nM
GI50 ([5]; MOLT-4 cells, 72 hours incubation, read-out: GI50 Mol): 110 nM
GI50 [5, 16]: 110 nM
pIC50 (HDAC3; [11]): 7.49
pIC50 (HDAC11; [12]): 7.43
SMILES: C=C1NC(=O)c2cccc(n2)CNC(=O)C[C@@H](/C=C/CCSC(=O)CCCCCCC)OC(=O)[C@H](C(C)C)NC1=O [Compound 244]

pIC50 (HDAC1; [6]): 7.19
pIC50 (HDAC2): 7.49
pIC50 (HDAC8): 7.60
IC50 HDAC7 (HDAC7): no activity
GI50 [1, 8]: 40 nM
GI50 [2]: 34 nM
GI50 [3]: 59 nM
GI50 [4, 9]: 50 nM
GI50 [5, 10]: 30 nM
pIC50 (HDAC3): 7.39
pIC50 (HDAC11): 7.04
SMILES: C/C=C1\NC(=O)c2nc(ccc2F)CNC(=O)C[C@@H](/C=C/CCSC(=O)CC)OC(=O)[C@H](C(C)C)NC1=O [Example 45]

pIC50 (HDAC1; [6]): 7.55
pIC50 (HDAC1; [13]): > 7.52
pIC50 (HDAC2): 7.44
pIC50 (HDAC8): 7.48
IC50 HDAC7 (HDAC7): no activity
GI50 [1, 17]: 110 nM
GI50 [1, 14]: 110 nM
GI50 [2]: 51 nM
GI50 [3]: 82 nM
GI50 [4, 15]: 28 nM
GI50 [4, 18]: 20 nM
GI50 [5, 16]: 3 nM
pIC50 (HDAC3): 7.21
pIC50 (HDAC11): 7.16
SMILES: C/C=C1\NC(=O)c2cccc(n2)CNC(=O)C[C@@H](/C=C/CCSC(=O)CCCCCCC)OC(=O)[C@H](CC(C)C)NC1=O [Compound 241]
